In US6617438B1, “Oligoribonucleotides with enzymatic activity” (Sirna Therapeutics, Inc., priority 1997, dated 2003):
“And” between values parts separate entries of the source, which are not always exact repeats. Equal entries are not always repeated. Where two headings read alike, the source gives them in different places. Marks after values point to notes of the source that are not given here.

Assays:
[1] = target: T1, Bacteriophage T7 RNA polymerase (wild type) (Escherichia phage T7, UniProt P00573); test: biochemical; format: biochemical; settings: for activity at 2000 µM: read-out: % ribo control
T1 construct: purchased Boehringer Mannheim
Protocol: Bacteriophage T7 RNA polymerase was purchased from Boehringer Mannheim at 0.4 U/μL concentration. Applicant used the commercial buffer supplied with the enzyme and 0.2 μCi alpha-^32P NTP in a 50 μL reaction with nucleotides triphosphates at 2 mM each. The template was a double-stranded PCR fragment, which was used in previous screens. Reactions were carried out at 37° C. for 1 hour. Ten μL of the sample was run on a 7.5% analytical PAGE and bands were quantitated using a Phosphorlmager.

[2] = target: T2, Y639F mutant T7 polymerase (Escherichia phage T7, UniProt P00573, Y639F); format: biochemical, bacteriophage T7
[3] = target: T2, Y639F mutant T7 polymerase; format: biochemical, bacteriophage T7; remark: listed apart in the source
BT-474 xenografts = settings: combination study, dose not given; cited from earlier work
[4] = high-risk patients; cited from earlier work
[5] = together with 2′-his-UTP, rATP and rGTP, condition number 9
[6] = together with rUTP, condition number 9
[7] = COND# 1: 20 mM MgCl2, 10% methanol, 1 mM LiCl, no PEG, 25° C.
[8] = COND# 2: 20 mM MgCl2, 10% methanol, 1 mM LiCl, 4% PEG, 25° C.
[9] = COND# 3: 12 mM MgCl2, 4% PEG, 25° C.
[10] = COND# 4: 12 mM MgCl2, 10% methanol, 4% PEG, 25° C.
[11] = COND# 5: 12 mM MgCl2, 1 mM LiCl, 4% PEG, 25° C.
[12] = COND# 6: 12 mM MgCl2, 10% methanol, 1 mM LiCl, 4% PEG, 25° C.
[13] = COND# 7: 20 mM MgCl2, 10% methanol, 1 mM LiCl, no PEG, 37° C.
[14] = COND# 8: 20 mM MgCl2, 10% methanol, 1 mM LiCl, 4% PEG, 37° C.
[15] = COND# 9: 12 mM MgCl2, 4% PEG, 37° C.
[16] = COND# 10: 12 mM MgCl2, 10% methanol, 4% PEG, 37° C.
[17] = COND# 11: 12 mM MgCl2, 1 mM LiCl, 4% PEG, 37° C.
[18] = COND# 12: 12 mM MgCl2, 10% methanol, 1 mM LiCl, 4% PEG, 37° C.
[19] = wild type T7 polymerase, commercial buffer, 37° C., 1 hour, label GTP
[20] = together with 2′-his-UTP and 2′-amino-CTP, same buffer (condition 9)
[21] = together with rUTP and rCTP, same buffer (condition 9)
[22] = wild type T7 polymerase, commercial buffer, 37° C., 1 hour, label ATP

T1 sequence (P00573 whole entry): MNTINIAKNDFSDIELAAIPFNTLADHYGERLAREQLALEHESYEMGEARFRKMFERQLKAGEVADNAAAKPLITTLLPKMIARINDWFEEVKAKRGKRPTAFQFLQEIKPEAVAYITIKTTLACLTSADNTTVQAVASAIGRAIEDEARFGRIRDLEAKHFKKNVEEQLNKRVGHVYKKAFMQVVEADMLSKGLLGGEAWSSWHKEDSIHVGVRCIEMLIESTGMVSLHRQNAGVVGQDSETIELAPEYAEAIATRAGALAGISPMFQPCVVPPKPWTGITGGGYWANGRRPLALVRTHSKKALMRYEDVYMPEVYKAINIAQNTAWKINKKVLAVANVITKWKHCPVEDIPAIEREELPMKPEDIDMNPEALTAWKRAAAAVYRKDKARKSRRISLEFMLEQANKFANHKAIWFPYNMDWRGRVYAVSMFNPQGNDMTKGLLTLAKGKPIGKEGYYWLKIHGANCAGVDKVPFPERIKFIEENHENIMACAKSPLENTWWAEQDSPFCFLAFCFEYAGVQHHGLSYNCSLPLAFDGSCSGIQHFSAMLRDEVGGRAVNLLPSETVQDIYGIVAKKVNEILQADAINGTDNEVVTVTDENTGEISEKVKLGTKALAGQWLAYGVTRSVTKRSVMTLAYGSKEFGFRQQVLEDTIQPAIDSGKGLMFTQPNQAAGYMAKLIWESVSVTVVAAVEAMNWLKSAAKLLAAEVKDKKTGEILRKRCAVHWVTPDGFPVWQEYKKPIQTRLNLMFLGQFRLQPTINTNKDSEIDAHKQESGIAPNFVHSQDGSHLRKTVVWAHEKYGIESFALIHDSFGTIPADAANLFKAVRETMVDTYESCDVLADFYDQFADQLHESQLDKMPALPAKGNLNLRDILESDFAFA
T2 sequence (P00573 whole entry Y639F, looked up): as the sequence (P00573 whole entry) above, with Y639F counted along it

## 2′-F—GTP
[1]
  % ribo control: 4%

## 2′-dGTP
[1]
  % ribo control: 3%

## 2′-deoxy-2′-amino-CTP [2′-NH2—CTP]
[2]; [5]
  percentage of incorporation compared to the all-RNA control: 9.5* %
[2]; [6]
  percentage of incorporation compared to the all-RNA control: 232.7%
[3]; [7]
  full-length transcript, percent compared to all-rNTP control: 11%
[3]; [8]
  full-length transcript, percent compared to all-rNTP control: 37%
[3]; [9]
  full-length transcript, percent compared to all-rNTP control: 45%
[3]; [10]
  full-length transcript, percent compared to all-rNTP control: 64%
[3]; [11]
  full-length transcript, percent compared to all-rNTP control: 25%
[3]; [12]
  full-length transcript, percent compared to all-rNTP control: 70%
[3]; [13]
  full-length transcript, percent compared to all-rNTP control: 26%
[3]; [14]
  full-length transcript, percent compared to all-rNTP control: 54%
[3]; [15]
  full-length transcript, percent compared to all-rNTP control: 292%
[3]; [16]
  full-length transcript, percent compared to all-rNTP control: 264%
[3]; [17]
  full-length transcript, percent compared to all-rNTP control: 109%
[3]; [18]
  full-length transcript, percent compared to all-rNTP control: 244%
[1]; [19]
  % ribo control: 59%

## 2′-deoxy-2′-amino-UTP [2′-NH2—UTP]
[1]
  % ribo control: 39%

## Nc1ncnc2c1ncn2[C@@H]1O[C@H](COP(=O)(O)OP(=O)(O)OP(=O)(O)O)[C@@H](O)[C@H]1F [2′-F—ATP, 2′-deoxy-2′-fluoro-adenine triphosphate]
[2]; [20]
  percentage of incorporation compared to the all-RNA control: 4%
[2]; [21]
  percentage of incorporation compared to the all-RNA control: 222.6%
[3]; [7]
  full-length transcript, percent compared to all-rNTP control: 227%
[3]; [8]
  full-length transcript, percent compared to all-rNTP control: 252%
[3]; [9]
  full-length transcript, percent compared to all-rNTP control: 98%
[3]; [10]
  full-length transcript, percent compared to all-rNTP control: 103%
[3]; [11]
  full-length transcript, percent compared to all-rNTP control: 100%
[3]; [12]
  full-length transcript, percent compared to all-rNTP control: 116%
[3]; [13]
  full-length transcript, percent compared to all-rNTP control: 288%
[3]; [14]
  full-length transcript, percent compared to all-rNTP control: 278%
[3]; [15]
  full-length transcript, percent compared to all-rNTP control: 471%
[3]; [16]
  full-length transcript, percent compared to all-rNTP control: 198%
[3]; [17]
  full-length transcript, percent compared to all-rNTP control: 317%
[3]; [18]
  full-length transcript, percent compared to all-rNTP control: 185%

## O=c1ccn([C@@H]2O[C@H](COP(=O)(O)OP(=O)(O)OP(=O)(O)O)[C@@H](O)[C@H]2F)c(=O)[nH]1 [2′-F—UTP, 2′-deoxy-2′-fluoro-uridine triphosphate]
[3]
  full-length transcript, percent compared to all-rNTP control: 100%
[1]; 1 h
  activity at 2000 µM: 100%

## Nc1nc(N)c2ncn([C@@H]3O[C@H](CO)C(O)C3N)c2n1 (stereo partly drawn) [2′-NH2—DAP, 2′-deoxy-2′amino-2,6-diaminopurine riboside]
[2]
  percentage of incorporation compared to the all-RNA control: 8.9* % and 9.6%
[3]
  full-length transcript, percent compared to all-rNTP control: 0% and 1%

## CSCO[C@@H]1[C@H](O)[C@@H](COP(=O)(O)OP(=O)(O)OP(=O)(O)O)O[C@H]1n1ccc(=O)[nH]c1=O [2′-O-MTM-UTP, 2′-O-methylthiomethyl-uridine-5 ′-triphosphate]
[1]; [22]
  activity at 2000 µM: 64%

## CSCO[C@@H]1[C@H](O)[C@@H](CO)O[C@H]1n1cnc2c(N)ncnc21 [2′-O—MTM—ATP, 2′-O-methylthiomethyl adenosine]
[3]
  full-length transcript, percent compared to all-rNTP control: 0% and 1%
[1]; [19]
  activity at 2000 µM: 1%

## CSCO[C@@H]1[C@H](O)[C@@H](CO)O[C@H]1n1ccc(N)nc1=O [2′-O—MTM—CTP, 2′-O-methylthiomethyl cytidine]
[2]
  percentage of incorporation compared to the all-RNA control: 5.9% and 5.1%
[3]
  full-length transcript, percent compared to all-rNTP control: 2% and 4% and 5% and 3% and 1%

## CSCO[C@@H]1[C@H](O)[C@@H](CO)O[C@H]1n1cnc2c(=O)[nH]c(N)nc21 [2′-O—MTM—GTP, 2′-O-methylthiomethyl guanosine]
[3]
  full-length transcript, percent compared to all-rNTP control: 6% and 3% and 1% and 4% and 2% and 0%
[1]; [22]
  activity at 2000 µM: 3%

## CO[C@@H]1[C@H](O)[C@@H](COP(=O)(O)OP(=O)(O)OP(=O)(O)O)O[C@H]1n1cnc2c(N)ncnc21 [2′-O—Me—ATP]
[3]
  full-length transcript, percent compared to all-rNTP control: 0% and 2% and 1%

## COC1C(O)[C@@H](CO)O[C@H]1n1cnc2c(N)nc(N)nc21 (stereo partly drawn) [2′-O—Me—DAP, 2′-O-methyl-2,6-diaminopurine riboside]
[2]
  percentage of incorporation compared to the all-RNA control: 1.9% and 5.7%
[3]
  full-length transcript, percent compared to all-rNTP control: 4% and 5% and 3%

## CO[C@@H]1[C@H](O)[C@@H](COP(=O)(O)OP(=O)(O)OP(=O)(O)O)O[C@H]1n1cnc2c(=O)[nH]c(N)nc21 [2′-O—Me—GTP, 2′-O-methyl-guanosine-5′-Triphosphate]
[3]
  full-length transcript, percent compared to all-rNTP control: 4% and 5% and 3% and 2%
[1]; 1 h
  activity at 2000 µM: 3%

## NO[C@@H]1[C@H](O)[C@@H](CO)O[C@H]1n1ccc(=O)[nH]c1=O [2′-O—NH2—UTP, 2′-O-amino-uridine]
[1]; [22]
  activity at 2000 µM: 1%

## Nc1ncnc2c1ncn2[C@H]1C[C@H](O)[C@@H](COP(=O)(O)OP(=O)(O)OP(=O)(O)O)O1 [2′-dATP]
[2]; [20]
  percentage of incorporation compared to the all-RNA control: 2.3%
[2]; [21]
  percentage of incorporation compared to the all-RNA control: 146.3%
[3]; [7]
  full-length transcript, percent compared to all-rNTP control: 9%
[3]; [8]
  full-length transcript, percent compared to all-rNTP control: 3%
[3]; [9]
  full-length transcript, percent compared to all-rNTP control: 19%
[3]; [10]
  full-length transcript, percent compared to all-rNTP control: 23%
[3]; [11]
  full-length transcript, percent compared to all-rNTP control: 9%
[3]; [12]
  full-length transcript, percent compared to all-rNTP control: 24%
[3]; [13]
  full-length transcript, percent compared to all-rNTP control: 6%
[3]; [14]
  full-length transcript, percent compared to all-rNTP control: 3%
[3]; [15]
  full-length transcript, percent compared to all-rNTP control: 84%
[3]; [16]
  full-length transcript, percent compared to all-rNTP control: 70%
[3]; [17]
  full-length transcript, percent compared to all-rNTP control: 28%
[3]; [18]
  full-length transcript, percent compared to all-rNTP control: 51%

## NCCC(=O)N[C@@H]1[C@H](O)[C@@H](CO)O[C@H]1n1ccc(=O)[nH]c1=O [2′-β NH2-ala-UTP, 2′-(N-β-alanyl)amino-2′-deoxy uridine]
[1]; [22]
  activity at 2000 µM: 3%

## COC1C(O)[C@@H](CO)O[C@H]1n1cc(CCCN)c(=O)[nH]c1=O (stereo partly drawn) [5-(3-aminopropyl)-2′-O-methyl uridine]
[3]
  full-length transcript, percent compared to all-rNTP control: 4% and 10%
[1]; [19]
  activity at 2000 µM: 0%

## Nc1ncnc2c1ncn2[C@@H]1O[C@H](COP(=O)(O)OP(=O)(O)OP(=O)(O)O)[C@@H](O)[C@H]1O [ATP]
[2]; [20]
  percentage of incorporation compared to the all-RNA control: 15.7%
[2]; [21]
  percentage of incorporation compared to the all-RNA control: 100%

## Nc1ccn([C@@H]2O[C@H](COP(=O)(O)OP(=O)(O)OP(=O)(O)O)[C@@H](O)[C@H]2O)c(=O)n1 [CTP]
[2]; [5]
  percentage of incorporation compared to the all-RNA control: 16.1%
[2]; [6]
  percentage of incorporation compared to the all-RNA control: 100%

## CC(N)C(=O)NC1C(O)[C@@H](CO)O[C@H]1n1ccc(=O)[nH]c1=O (stereo partly drawn) [ala-2′-NH2—UTP, 2′-(N-alanyl) amino-2′-deoxy-uridine]
[1]; [22]
  activity at 2000 µM: 2%

## CC(=O)O[C@H]1C(=O)[C@@]2(C)[C@H]([C@H](OC(=O)c3ccccc3)[C@]3(O)C[C@H](OC(=O)[C@H](O)[C@@H](NC(=O)c4ccccc4)c4ccccc4)C(C)=C1C3(C)C)[C@]1(OC(C)=O)CO[C@@H]1C[C@@H]2O [paclitaxel]
BT-474 xenografts
  inhibition of tumor growth: 35%

## NC(Cc1ccccc1)C(=O)NC1C(O)[C@@H](CO)O[C@H]1n1ccc(=O)[nH]c1=O (stereo partly drawn) [phe-2′-NH2—UTP, 2′-(N-phenylalanyl)amino-2′-deoxy-uridine]
[3]
  full-length transcript, percent compared to all-rNTP control: 8% and 6% and 10% and 12% and 7% and 4%
[1]; [22]
  activity at 2000 µM: 1%

## CC/C(=C(\c1ccccc1)c1ccc(OCCN(C)C)cc1)c1ccccc1 [tamoxifen]
[4]
  reduction of breast cancer incidence: 49%
